From paper PMC11850817 (Scientific Reports, 2025)

How the values were obtained:
[1] = test system: NIH3T3; assay: MTT assay, NIH3T3 non-cancer cell line; type: cell-based; details: Mus musculus, NIH3T3, 72 h, read-out: IC50 NIH3T3
[2] = test system: AsPC-1; assay: MTT antiproliferative assay, AsPC-1; type: cell-based, human; details: Homo sapiens, ASPC1, 72 h, read-out: IC50 AsPC-1
[3] = molecular target: T1, AXL (Homo sapiens, UniProt P30530); assay: Radiometric kinase assay; type: biochemical; details: read-out: Kinase inhibition (%) AXL
T1 sequence (P30530 26-894): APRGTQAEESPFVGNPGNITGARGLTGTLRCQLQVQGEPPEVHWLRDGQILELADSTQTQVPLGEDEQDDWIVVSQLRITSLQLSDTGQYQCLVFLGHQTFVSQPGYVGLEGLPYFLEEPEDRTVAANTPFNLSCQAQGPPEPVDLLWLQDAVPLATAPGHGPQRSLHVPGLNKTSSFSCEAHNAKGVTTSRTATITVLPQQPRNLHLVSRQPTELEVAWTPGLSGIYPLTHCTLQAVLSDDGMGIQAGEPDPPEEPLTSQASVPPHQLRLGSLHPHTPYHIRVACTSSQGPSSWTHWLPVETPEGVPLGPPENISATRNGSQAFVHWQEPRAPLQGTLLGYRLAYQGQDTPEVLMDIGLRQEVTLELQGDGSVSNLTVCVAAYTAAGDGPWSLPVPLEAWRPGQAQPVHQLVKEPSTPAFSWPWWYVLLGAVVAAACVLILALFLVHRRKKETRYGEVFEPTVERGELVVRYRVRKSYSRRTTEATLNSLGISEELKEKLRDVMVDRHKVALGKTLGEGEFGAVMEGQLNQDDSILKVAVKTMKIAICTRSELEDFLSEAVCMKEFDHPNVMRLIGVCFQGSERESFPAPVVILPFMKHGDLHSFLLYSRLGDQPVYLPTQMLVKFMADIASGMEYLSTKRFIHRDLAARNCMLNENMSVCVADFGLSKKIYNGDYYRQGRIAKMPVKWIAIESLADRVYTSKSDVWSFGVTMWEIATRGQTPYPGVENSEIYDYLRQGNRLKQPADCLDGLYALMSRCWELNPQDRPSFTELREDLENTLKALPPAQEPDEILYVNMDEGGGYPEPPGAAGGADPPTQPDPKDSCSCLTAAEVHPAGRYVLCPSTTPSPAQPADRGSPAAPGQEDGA

[4] = molecular target: NTRK3 (TrkC) (Homo sapiens, UniProt Q16288); assay: Radiometric kinase assay; type: biochemical; details: read-out: Kinase inhibition (%) NTRK3 (TrkC)
[5] = molecular target: CDK2/cyclin A (Homo sapiens, UniProt P24941); assay: Radiometric kinase assay; type: biochemical
[6] = molecular target: PDGFRB (PDGFRβ) (Homo sapiens, UniProt P09619); assay: Radiometric kinase assay; type: biochemical; details: read-out: Kinase inhibition (%) PDGFRB (PDGFRβ)
[7] = test system: MCF-7; assay: MTT antiproliferative assay, MCF-7; type: cell-based, human; details: Homo sapiens, MCF7, 72 h, read-out: IC50 MCF-7
[8] = molecular target: PIK3CA (Homo sapiens, UniProt P42336); assay: Radiometric kinase assay; type: biochemical; details: read-out: Kinase inhibition (%) PIK3CA
[9] = molecular target: FLT4 (VEGFR3) (Homo sapiens, UniProt P35916); assay: Radiometric kinase assay; type: biochemical
Chain of FLT4 (VEGFR3) (P35916 25-1363): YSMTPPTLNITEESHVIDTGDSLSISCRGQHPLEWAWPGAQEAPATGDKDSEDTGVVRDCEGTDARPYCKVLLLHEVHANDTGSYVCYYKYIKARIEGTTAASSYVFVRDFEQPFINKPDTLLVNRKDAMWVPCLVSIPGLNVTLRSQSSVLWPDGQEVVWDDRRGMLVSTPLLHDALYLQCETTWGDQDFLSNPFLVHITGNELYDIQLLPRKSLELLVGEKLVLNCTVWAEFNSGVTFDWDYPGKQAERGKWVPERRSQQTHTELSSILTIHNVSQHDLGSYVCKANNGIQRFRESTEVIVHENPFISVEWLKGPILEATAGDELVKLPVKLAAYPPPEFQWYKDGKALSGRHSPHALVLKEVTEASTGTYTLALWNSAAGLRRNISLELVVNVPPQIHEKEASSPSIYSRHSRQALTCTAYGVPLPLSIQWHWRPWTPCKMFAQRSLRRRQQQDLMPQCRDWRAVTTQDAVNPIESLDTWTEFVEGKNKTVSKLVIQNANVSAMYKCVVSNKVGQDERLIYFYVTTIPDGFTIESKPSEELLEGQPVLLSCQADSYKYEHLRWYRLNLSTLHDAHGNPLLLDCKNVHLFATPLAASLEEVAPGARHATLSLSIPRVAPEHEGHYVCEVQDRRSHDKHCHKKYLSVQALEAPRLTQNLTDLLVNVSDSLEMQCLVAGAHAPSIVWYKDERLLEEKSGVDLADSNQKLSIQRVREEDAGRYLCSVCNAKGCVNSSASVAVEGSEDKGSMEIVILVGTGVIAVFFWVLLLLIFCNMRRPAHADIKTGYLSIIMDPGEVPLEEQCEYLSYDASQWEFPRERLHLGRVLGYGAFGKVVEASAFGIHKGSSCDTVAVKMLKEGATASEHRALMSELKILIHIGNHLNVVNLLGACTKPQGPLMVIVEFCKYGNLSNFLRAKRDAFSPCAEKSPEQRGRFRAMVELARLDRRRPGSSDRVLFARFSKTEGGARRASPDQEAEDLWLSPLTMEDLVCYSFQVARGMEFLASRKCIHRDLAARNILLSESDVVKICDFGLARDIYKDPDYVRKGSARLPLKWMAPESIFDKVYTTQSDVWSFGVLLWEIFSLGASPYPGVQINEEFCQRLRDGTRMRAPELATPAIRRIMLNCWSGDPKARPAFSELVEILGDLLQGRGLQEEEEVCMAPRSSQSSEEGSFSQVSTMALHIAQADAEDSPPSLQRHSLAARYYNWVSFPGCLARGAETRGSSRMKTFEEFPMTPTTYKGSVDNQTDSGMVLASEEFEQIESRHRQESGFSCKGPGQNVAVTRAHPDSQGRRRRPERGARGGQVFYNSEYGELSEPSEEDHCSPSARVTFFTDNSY

[10] = test system: Mia-Paca-2; assay: MTT antiproliferative assay, Mia-Paca-2; type: cell-based, human; details: Homo sapiens, MIA PaCa-2, 72 h, read-out: IC50 Mia-Paca-2
[11] = molecular target: BRAF (Homo sapiens, UniProt P15056); assay: Radiometric kinase assay; type: biochemical; details: read-out: Kinase inhibition (%) BRAF
[12] = molecular target: FGFR1 (Homo sapiens, UniProt P11362); assay: Radiometric kinase assay; type: biochemical; details: read-out: Kinase inhibition (%) FGFR1
[13] = test system: EBC-1; assay: MTT antiproliferative assay, EBC-1; type: cell-based, human; details: Homo sapiens, EBC-1, 72 h, read-out: IC50 EBC-1
[14] = molecular target: FLT1 (VEGFR1) (Homo sapiens, UniProt P17948); assay: Radiometric kinase assay; type: biochemical; details: read-out: Kinase inhibition (%) FLT1 (VEGFR1)
[15] = molecular target: ABL1 (Homo sapiens, UniProt P00519); assay: Radiometric kinase assay; type: biochemical; details: read-out: Kinase inhibition (%) ABL1
[16] = molecular target: KIT (c-Kit) (Homo sapiens, UniProt P10721); assay: Radiometric kinase assay; type: biochemical; details: read-out: Kinase inhibition (%) KIT (c-Kit)
[17] = molecular target: WEE1 (Homo sapiens, UniProt P30291); assay: Radiometric kinase assay; type: biochemical; details: read-out: Kinase inhibition (%) WEE1
[18] = molecular target: ALK (Homo sapiens, UniProt Q9UM73); assay: Radiometric kinase assay; type: biochemical; details: read-out: Kinase inhibition (%) ALK
[19] = molecular target: IGF1R (Homo sapiens, UniProt P08069); assay: Radiometric kinase assay; type: biochemical; details: read-out: Kinase inhibition (%) IGF1R
Chain of IGF1R (P08069 31-1367): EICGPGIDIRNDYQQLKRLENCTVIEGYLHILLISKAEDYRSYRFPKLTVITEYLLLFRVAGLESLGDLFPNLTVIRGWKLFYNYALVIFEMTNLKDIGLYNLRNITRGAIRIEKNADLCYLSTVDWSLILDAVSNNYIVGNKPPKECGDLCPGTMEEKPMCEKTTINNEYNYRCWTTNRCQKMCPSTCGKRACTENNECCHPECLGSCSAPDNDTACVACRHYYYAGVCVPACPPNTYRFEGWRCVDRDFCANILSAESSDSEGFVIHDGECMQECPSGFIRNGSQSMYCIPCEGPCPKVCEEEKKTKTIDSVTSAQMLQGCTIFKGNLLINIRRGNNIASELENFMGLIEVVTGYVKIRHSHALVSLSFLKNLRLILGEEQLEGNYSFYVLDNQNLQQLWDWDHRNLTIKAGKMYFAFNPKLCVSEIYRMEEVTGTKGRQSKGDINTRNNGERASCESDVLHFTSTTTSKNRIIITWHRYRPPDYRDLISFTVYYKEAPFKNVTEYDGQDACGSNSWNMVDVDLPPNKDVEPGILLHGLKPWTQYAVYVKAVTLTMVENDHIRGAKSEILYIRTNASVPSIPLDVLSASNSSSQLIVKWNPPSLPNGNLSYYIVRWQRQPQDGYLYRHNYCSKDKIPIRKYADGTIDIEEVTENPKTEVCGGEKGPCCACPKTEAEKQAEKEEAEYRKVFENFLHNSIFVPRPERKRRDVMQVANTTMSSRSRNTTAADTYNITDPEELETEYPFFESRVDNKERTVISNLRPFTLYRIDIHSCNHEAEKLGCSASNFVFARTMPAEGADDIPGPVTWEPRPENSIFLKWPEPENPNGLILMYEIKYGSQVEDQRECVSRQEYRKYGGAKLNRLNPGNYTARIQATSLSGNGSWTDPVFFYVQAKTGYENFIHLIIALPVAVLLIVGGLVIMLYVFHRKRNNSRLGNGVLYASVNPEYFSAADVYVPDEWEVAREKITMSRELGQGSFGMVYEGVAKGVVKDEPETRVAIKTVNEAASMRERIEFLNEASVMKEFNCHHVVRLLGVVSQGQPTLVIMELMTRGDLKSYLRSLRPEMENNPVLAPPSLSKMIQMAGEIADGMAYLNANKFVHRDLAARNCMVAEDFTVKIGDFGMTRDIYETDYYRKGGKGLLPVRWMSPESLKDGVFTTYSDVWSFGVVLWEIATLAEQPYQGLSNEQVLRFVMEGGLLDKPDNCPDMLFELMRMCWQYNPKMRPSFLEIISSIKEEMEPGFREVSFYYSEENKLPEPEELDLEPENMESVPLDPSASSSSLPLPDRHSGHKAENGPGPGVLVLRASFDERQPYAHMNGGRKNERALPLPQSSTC

[20] = molecular target: AKT1 (Homo sapiens, UniProt P31749); assay: Radiometric kinase assay; type: biochemical; details: read-out: Kinase inhibition (%) AKT1
[21] = molecular target: EGFR (Homo sapiens, UniProt P00533); assay: Radiometric kinase assay; type: biochemical; details: read-out: Kinase inhibition (%) EGFR
[22] = molecular target: CDK6/cyclinD3 (Homo sapiens, UniProt Q00534); assay: Radiometric kinase assay; type: biochemical; details: read-out: Kinase inhibition (%) CDK6/cyclinD3
[23] = molecular target: ERBB2 (Her-2) (Homo sapiens, UniProt P04626); assay: Radiometric kinase assay; type: biochemical; details: read-out: Kinase inhibition (%) ERBB2 (Her-2)
[24] = molecular target: PDGFRA (PDGFRα) (Homo sapiens, UniProt P16234); assay: Radiometric kinase assay; type: biochemical
Chain of PDGFRA (PDGFRα) (P16234 24-1089): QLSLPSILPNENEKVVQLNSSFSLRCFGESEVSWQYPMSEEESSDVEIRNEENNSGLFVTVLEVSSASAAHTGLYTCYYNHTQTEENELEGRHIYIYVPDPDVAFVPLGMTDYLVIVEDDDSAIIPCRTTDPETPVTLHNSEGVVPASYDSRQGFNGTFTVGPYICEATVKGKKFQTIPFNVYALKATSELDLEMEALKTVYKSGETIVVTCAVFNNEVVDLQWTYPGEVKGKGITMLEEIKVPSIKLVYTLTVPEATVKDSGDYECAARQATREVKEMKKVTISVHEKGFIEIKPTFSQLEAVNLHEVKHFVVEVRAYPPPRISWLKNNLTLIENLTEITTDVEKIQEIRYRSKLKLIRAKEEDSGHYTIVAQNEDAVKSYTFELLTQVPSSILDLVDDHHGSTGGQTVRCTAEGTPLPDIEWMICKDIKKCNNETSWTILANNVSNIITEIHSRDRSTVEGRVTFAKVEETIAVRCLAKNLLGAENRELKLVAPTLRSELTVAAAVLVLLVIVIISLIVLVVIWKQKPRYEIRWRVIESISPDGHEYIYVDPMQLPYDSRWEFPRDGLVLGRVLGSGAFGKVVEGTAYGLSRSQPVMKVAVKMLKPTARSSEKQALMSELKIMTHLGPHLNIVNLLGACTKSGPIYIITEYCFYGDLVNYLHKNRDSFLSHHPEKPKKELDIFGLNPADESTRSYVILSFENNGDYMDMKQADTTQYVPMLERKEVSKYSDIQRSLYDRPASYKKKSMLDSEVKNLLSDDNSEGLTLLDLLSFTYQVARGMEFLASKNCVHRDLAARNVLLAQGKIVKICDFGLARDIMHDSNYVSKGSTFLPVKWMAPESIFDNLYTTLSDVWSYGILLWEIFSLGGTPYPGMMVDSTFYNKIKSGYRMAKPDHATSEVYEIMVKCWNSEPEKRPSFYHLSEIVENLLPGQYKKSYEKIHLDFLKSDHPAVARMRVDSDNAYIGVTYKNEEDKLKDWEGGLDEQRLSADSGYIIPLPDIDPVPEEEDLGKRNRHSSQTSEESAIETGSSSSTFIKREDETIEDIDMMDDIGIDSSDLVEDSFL

[25] = molecular target: NTRK1 (TrkA) (Homo sapiens, UniProt P04629); assay: Radiometric kinase assay; type: biochemical; details: read-out: Kinase inhibition (%) NTRK1 (TrkA)
[26] = molecular target: MAP2K1 (Homo sapiens, UniProt Q02750); assay: Radiometric kinase assay; type: biochemical; details: read-out: Kinase inhibition (%) MAP2K1
Chain of MAP2K1 (Q02750 whole entry): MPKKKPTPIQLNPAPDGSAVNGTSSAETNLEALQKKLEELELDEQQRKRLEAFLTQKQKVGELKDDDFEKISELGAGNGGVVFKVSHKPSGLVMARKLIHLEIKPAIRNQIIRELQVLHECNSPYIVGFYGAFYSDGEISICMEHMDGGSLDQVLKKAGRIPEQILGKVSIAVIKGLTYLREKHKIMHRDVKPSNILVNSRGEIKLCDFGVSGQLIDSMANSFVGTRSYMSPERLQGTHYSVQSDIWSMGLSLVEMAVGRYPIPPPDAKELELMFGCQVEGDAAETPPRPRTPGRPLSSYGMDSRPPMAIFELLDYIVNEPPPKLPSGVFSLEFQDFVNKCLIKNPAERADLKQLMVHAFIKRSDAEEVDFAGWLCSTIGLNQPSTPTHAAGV

[27] = molecular target: AKT2 (Homo sapiens, UniProt P31751); assay: Radiometric kinase assay; type: biochemical; details: read-out: Kinase inhibition (%) AKT2
Chain of AKT2 (P31751 whole entry): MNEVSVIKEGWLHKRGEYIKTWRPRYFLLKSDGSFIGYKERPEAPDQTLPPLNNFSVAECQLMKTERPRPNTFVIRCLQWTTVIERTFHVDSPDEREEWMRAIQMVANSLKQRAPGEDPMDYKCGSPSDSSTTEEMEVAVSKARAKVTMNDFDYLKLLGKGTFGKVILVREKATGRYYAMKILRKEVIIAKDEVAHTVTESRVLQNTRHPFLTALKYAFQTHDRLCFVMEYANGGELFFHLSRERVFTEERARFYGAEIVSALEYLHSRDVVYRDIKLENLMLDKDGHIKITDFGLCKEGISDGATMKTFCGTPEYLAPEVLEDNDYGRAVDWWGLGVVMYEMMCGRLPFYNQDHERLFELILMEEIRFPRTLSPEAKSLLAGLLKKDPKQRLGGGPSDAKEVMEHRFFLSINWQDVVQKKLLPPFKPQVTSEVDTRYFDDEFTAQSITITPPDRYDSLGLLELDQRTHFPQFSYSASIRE

[28] = molecular target: KDR (VEGFR2) (Homo sapiens, UniProt P35968); assay: Radiometric kinase assay; type: biochemical; details: read-out: Kinase inhibition (%) KDR (VEGFR2)
[29] = test system: AsPC-1 cells; assay: Cell cycle test, RNase/PI flow cytometry; type: cell-based, human; details: AsPC-1, 3, 10, 30, 50 µM, 48 h
[30] = test system: AsPC-1 cells; assay: Apoptosis by Hoechst 33,258 staining; type: cell-based, human; details: AsPC-1, 10 and 30 µM, 48 h
[31] = molecular target: AURKA (Homo sapiens, UniProt O14965); assay: Radiometric kinase assay; type: biochemical; details: read-out: Kinase inhibition (%) AURKA
Chain of AURKA (O14965 whole entry): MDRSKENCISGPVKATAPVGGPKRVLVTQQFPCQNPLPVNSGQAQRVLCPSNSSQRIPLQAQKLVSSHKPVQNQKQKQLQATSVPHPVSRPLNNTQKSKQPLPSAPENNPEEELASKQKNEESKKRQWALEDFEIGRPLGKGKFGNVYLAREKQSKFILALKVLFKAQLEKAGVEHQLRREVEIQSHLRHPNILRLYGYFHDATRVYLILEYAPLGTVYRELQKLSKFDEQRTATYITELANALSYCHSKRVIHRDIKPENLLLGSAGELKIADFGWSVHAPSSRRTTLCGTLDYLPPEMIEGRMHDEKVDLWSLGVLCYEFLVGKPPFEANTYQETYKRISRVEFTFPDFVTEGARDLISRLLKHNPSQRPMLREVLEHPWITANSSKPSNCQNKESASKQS

[32] = test system: HT-29; assay: MTT antiproliferative assay, HT-29; type: cell-based, human; details: Homo sapiens, HT-29, 72 h, read-out: IC50 HT-29
[33] = molecular target: ROS1 (Homo sapiens, UniProt P08922); assay: Radiometric kinase assay; type: biochemical; details: read-out: Kinase inhibition (%) ROS1
[34] = molecular target: CHEK1 (Homo sapiens, UniProt O14757); assay: Radiometric kinase assay; type: biochemical; details: read-out: Kinase inhibition (%) CHEK1

## O=C1C=C(Nc2ccc(OCc3cn(Cc4ccccc4)nn3)cc2)C(=O)c2ccccc21 [Compound 4a, 2-((4-((1-Benzyl-1H-1,2,3-triazol-4-yl)methoxy)phenyl)amino)naphthalene-1,4-dione]
[1]
  IC50: 85.5 ± 19.6 µM
[2]
  IC50: 23.5 ± 5.8 µM
[3]
  inhibition at 10 µM: 14%
[4]
  inhibition at 10 µM: 40%
[5]
  IC50: 1.67 ± 0.115 µM
[5]; read-out: Kinase inhibition (%) CDK2/cyclin A
  inhibition at 10 µM: 73%
[6]
  inhibition at 10 µM: 16%
[7]
  IC50: > 100 µM
[8]
  inhibition at 10 µM: 14%
[9]
  IC50: 0.554 ± 0.002 µM
[9]; read-out: Kinase inhibition (%) FLT4 (VEGFR3)
  inhibition at 10 µM: 87%
[10]
  IC50: > 100 µM
[11]
  inhibition at 10 µM: 3%
[12]
  inhibition at 10 µM: 14%
[13]
  IC50: 5.1 ± 1.2 µM
[14]
  inhibition at 10 µM: -16%
[15]
  inhibition at 10 µM: 7%
[16]
  inhibition at 10 µM: 1%
[17]
  inhibition at 10 µM: 6%
[18]
  inhibition at 10 µM: 16%
[19]
  inhibition at 10 µM: -3%
[20]
  inhibition at 10 µM: 19%
[21]
  inhibition at 10 µM: -5%
[22]
  inhibition at 10 µM: 9%
[23]
  inhibition at 10 µM: 3%
[24]
  IC50: 0.629 ± 0.087 µM
[24]; read-out: Kinase inhibition (%) PDGFRA (PDGFRα)
  inhibition at 10 µM: 71%
[25]
  inhibition at 10 µM: 43%
[26]
  inhibition at 10 µM: 9%
[27]
  inhibition at 10 µM: 25%
[28]
  inhibition at 10 µM: 20%
[29]
  Effect on cell cycle distribution (S and G2/M phases): dose-dependently increased the number of cells in the S phase and simultaneously reduced the cells in G2/M phase
[30]
  Apoptosis induction (nuclear morphology): characteristic features of apoptosis including densely packed chromatin within the nucleus as well as nuclear fragmentation
[31]
  inhibition at 10 µM: -3%
[32]
  IC50: 21.9 ± 3.9 µM
[33]
  inhibition at 10 µM: -6%
[34]
  inhibition at 10 µM: -20%
